Laboratory results taken from patent US20250312469A1 (CANGET BIOTEKPHARMA, priority 2024, published 2025).
Values joined by “and” are separate entries in the source; they are usually repeats but may differ in a detail not shown here. Equal entries are not always repeated.

Tests used:
[1] = test system: Panc-1, BxPC-3 and MiaPaca-2 cells; assay: Cell monolayer wound healing test; type: cell-based, human
Protocol: Representative cell migration wound healing images were taken at zero hour and wound healing for 48-72 hours.

[2] = test system: p53, Mdm2, AR, AR-Vs, c-Myc, MdmX; assay: Western blot/RT-PCR of p53, Mdm2, AR, AR-Vs, c-Myc, MdmX in PCa cells; type: cell-based, human
[3] = test system: SK-ES-1 OS tumors; assay: SK-ES-1 osteosarcoma xenograft; type: in vivo, SCID mice; settings: weekly×4
[4] = biological target: T1, ABCG2/BCRP (Homo sapiens, UniProt Q9UNQ0); settings: Caco-2; without and with Ko143
T1 sequence (Q9UNQ0 1-655): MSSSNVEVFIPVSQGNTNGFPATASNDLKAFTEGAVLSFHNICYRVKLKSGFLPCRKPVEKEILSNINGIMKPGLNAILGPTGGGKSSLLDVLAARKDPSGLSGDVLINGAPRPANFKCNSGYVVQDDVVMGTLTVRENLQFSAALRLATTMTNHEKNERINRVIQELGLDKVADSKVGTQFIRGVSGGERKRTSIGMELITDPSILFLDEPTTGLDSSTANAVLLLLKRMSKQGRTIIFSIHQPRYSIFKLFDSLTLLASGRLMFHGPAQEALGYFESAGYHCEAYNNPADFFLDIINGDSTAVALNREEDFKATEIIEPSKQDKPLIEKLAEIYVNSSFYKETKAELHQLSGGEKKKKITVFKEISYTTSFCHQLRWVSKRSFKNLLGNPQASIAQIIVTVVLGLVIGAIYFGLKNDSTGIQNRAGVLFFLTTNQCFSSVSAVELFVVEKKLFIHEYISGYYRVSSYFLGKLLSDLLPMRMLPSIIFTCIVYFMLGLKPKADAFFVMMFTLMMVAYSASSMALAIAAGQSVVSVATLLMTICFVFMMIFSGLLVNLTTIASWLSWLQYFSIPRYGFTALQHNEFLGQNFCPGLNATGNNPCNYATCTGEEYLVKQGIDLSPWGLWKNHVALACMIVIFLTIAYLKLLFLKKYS

[5] = biological target: T2, USP2a (Homo sapiens, UniProt O75604); assay: 3H-FL118 binding, Nanosep 3K centrifugal device; parameters: host or cells: HEK293T
T2 sequence (O75604 1-605): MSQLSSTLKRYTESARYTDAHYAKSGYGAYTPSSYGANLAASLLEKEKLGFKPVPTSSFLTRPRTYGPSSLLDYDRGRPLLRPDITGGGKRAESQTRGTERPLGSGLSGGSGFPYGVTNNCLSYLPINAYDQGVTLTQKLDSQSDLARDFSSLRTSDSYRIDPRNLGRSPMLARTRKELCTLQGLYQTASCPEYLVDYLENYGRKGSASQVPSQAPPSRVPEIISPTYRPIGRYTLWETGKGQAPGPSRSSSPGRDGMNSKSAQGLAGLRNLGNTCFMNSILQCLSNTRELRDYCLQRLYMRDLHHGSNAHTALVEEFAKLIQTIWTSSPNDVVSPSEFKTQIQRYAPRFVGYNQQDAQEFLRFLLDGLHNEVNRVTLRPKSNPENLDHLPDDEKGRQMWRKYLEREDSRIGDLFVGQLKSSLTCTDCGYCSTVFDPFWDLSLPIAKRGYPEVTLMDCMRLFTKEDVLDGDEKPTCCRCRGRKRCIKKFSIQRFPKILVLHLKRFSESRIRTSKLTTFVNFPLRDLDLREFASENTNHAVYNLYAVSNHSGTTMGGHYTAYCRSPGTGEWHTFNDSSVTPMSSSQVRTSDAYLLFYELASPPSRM
Protocol: (§1) Then, 5-10 μg of the FLAGR M Purification Kit (Signa)-purified Flag-USP2a and Flag-UbE2T proteins in a volume of 20-50 μL, respectively, was transferred into the sample reservoir of a 1.5 mL Nanosep 3K Centrifugal Device. In parallel, a negative control Nanosep 3K Centrifugal Devices containing 10 μg bovine serum albumin (BSA) in 50 μL volume was also set up. Then, the 3 prepared Nanosep 3K Devices were centrifuged at 10,000 rpm for 10-15 min to eliminate the solution and retain the proteins in the sample reservoir. […] Lastly, all three of the sample reservoir devices were transferred into a scintillation vial containing enough scintillation solution to cover the entire sample reservoir devices for tritium (3H) counting on the LS 6500 Scintillation System (Backman Couler™).

[6] = biological target: T3, UbE2T (Homo sapiens, UniProt Q9NPD8); assay: 3H-FL118 binding, Nanosep 3K centrifugal device; parameters: host or cells: HEK293T; settings: hot FL118 solution 10 μM
T3 sequence (Q9NPD8 1-197): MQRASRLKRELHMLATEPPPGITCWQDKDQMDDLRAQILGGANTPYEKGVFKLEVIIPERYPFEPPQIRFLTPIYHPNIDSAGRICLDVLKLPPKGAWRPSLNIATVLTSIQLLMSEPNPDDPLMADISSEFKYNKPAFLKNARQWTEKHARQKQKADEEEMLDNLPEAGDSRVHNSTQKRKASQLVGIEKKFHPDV
Protocol: as §1

[7] = Plasma protein binding (RED); settings: both, human, % Bound of Plasma, Test Article (FL118), 37° C.
[8] = test system: TA98; assay: Ames Bacterial Reverse Mutation Assay
[9] = PK after single i.v. dose in tumor bearing mice
[10] = biological target: T2, USP2a; assay: USP2a deubiquitinase in vitro reconstitution assay; settings: 50 nM FL118; polyUb MdmX

CCC1(O)C(=O)OCc2c1cc1n(c2=O)Cc2cc3cc4c(cc3nc2-1)OCO4 (centres unmarked) [FL118]
cell migration wound healing [1]: exhibited cell migration wound healing defect | AR mRNA [2]: decrease AR mRNA levels | expression of p53, Mdm2, AR, AR-Vs, MdmX, c-Myc [2]: induces the expression of p53 (p21 increase is a hallmark of p53 activation) and Mdm2 but inhibits AR, AR-Vs, MdmX, and c-Myc | antitumor efficacy [3]: effectively eliminated human osteosarcoma xenograft tumors | BCRP Substrate Classification [4]: Negative (ER≥2.0 without Ko143, and reduced by <50% with Ko143: Negative) | binding of 3H-FL118 to USP2a and UbE2T versus BSA ([5]; 3H counts per min): 10-20 fold | 3H CPM counts in retained parts ([5]; hot FL118 solution 10 μM): 97,436 ± 2960 CPM | 3H CPM counts in retained parts [6]: 52,382 ± 1930 CPM | fraction unbound at 4 h, 1 μM [7]: < 0.01 | bacterial strain mutation [8]: does not induce | mean revertant colonies over negative control ([8]; +/− S9): less than 2 fold | Background Lawn Code ([8]; TA98, 0.010 μM +S9): 1 | Colony Counts Average ([8]; TA98, 0.010 μM +S9): 38 | Colony Counts Replicate 1-3 ([8]; TA98, 0.010 μM +S9): 32 and 37 and 45 | Background Lawn Code ([8]; TA98, 0.010 μM −S9): 1 | Colony Counts Average ([8]; TA98, 0.010 μM −S9): 38 | Colony Counts Replicate 1-3 ([8]; TA98, 0.010 μM −S9): 29 and 53 and 32 | Background Lawn Code ([8]; TA98, 0.10 μM +S9): 1 | Colony Counts Average ([8]; TA98, 0.10 μM +S9): 44 | Colony Counts Replicate 1-3 ([8]; TA98, 0.10 μM +S9): 45 and 41 and 46 | Background Lawn Code ([8]; TA98, 0.10 μM −S9): 1 | Colony Counts Average ([8]; TA98, 0.10 μM −S9): 24 | Colony Counts Replicate 1-3 ([8]; TA98, 0.10 μM −S9): 36 and 20 and 15 | Background Lawn Code ([8]; TA98, 1.0 μM +S9): 1 | Colony Counts Average ([8]; TA98, 1.0 μM +S9): 44 | Colony Counts Replicate 1-3 ([8]; TA98, 1.0 μM +S9): 35 and 45 and 52 | Background Lawn Code ([8]; TA98, 1.0 μM −S9): 1 | Colony Counts Average ([8]; TA98, 1.0 μM −S9): 23 | Colony Counts Replicate 1-3 ([8]; TA98, 1.0 μM −S9): 24 and 26 and 19 | Vz ([9]; FaDu tumor): 33052 g/kg | Vz ([9]; SW620 tumor): 30742 g/kg | USP2a deubiquitinase activity [10]: inhibited USP2a deubiquitinase activity
